Where “and” joins values, the source holds several entries; their conditions need not be identical. Equal entries are not always repeated.
Assays:
stromelysin = stromelysin (Homo sapiens, UniProt P08254); assay: Assay of stromelysin inhibition activity (fluorogenic coumarin peptide substrate); format: biochemical; details: trypsin-activated stromelysin 2 nM, H-150 buffer pH 7.4, room temperature; read-out: Ki(app)
Procedure, shortened: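 Human stromelysin trypsin-activated, then used at 2 nM in HEPES/NaCl/CaCl2 buffer pH 7.4 at room temperature with coumarin peptide substrate. Initial hydrolysis rate followed by fluorescence (ex 328/em 393 nm); inhibitor added stepwise to 30-70% inhibition, Ki derived assuming simple competitive inhibition with substrate far below Km.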

72 kD gelatinase = target: T1, 72 kD gelatinase (Homo sapiens, UniProt P08253); assay: Assay of 72 KD gelatinase inhibition activity; format: biochemical; details: 72KD gelatinase 180 pM, H-150 buffer pH 7.4; read-out: Ki(app)
T1 sequence (P08253 110-660): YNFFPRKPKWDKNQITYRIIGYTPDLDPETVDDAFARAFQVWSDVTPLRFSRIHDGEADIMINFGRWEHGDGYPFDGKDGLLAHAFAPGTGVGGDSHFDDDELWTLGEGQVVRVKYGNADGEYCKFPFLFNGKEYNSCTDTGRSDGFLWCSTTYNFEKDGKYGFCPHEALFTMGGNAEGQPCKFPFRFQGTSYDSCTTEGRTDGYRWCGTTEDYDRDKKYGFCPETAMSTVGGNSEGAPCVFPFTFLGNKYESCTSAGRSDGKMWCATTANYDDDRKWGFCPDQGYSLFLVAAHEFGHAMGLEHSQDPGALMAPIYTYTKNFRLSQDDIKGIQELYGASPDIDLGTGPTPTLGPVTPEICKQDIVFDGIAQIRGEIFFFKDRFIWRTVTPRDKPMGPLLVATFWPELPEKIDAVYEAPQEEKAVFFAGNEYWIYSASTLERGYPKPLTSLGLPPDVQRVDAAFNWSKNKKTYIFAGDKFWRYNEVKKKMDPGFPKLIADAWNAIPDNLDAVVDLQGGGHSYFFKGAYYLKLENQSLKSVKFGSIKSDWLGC
Protocol: H-150 buffer, pH 7.4, was prepared by CaCl2 H2O (1.47 grams), NaCl (8.77 grams) and N-[2 -hydroxyethyl]piperazine-N'-[2-ethanesulfonic acid](23.83 grams) to distilled and deionized water and then bring the final volume of the solution to 1 liter. An reaction mixture having a final volume of 250 μL was prepared with H-150 buffer, 40 μgrams of Pro-72KD gelatinase (Strongin, et al., J. Biol. Chem. 268:14033 (1993); Goldberg, et al., J. Biol. Chem., 267:4583 (1992); Kleiner, et al., Biochemistry 32:1583 (1993)) and p-aminophenyl mercuric acetate (Sigma Chemical Co., St. Louis, Mo.) (1 mM). The reaction mixture was then incubated for 3 hours at 25° C.
The reaction mixture was applied to a NAP-5 column (G-25 SEPHADEX™, Pharmacia). Fractions containing […] were identified using 12% SDS polyacrylamide gel electrphoresis and concentrated to about 100-200 μliters by centrifigation (5000 g, 15 minutes).
A solution containing H-150 buffer (2.0 mL), 72KD gelatinase (180 pM) and ethylphenolpoly(ethylene-glycolether)n (Boerhringer Mannheim) (1.3 μM) was prepared in a stirred cuvette. Coumarin peptide substrate (2 μL of a 1 mM solution in dimethyl sulfoxide) was added to the reaction mixture. The rate of hydrolysis was determined for about 100-200 seconds by measuring the fluorescence of the reaction at ex328 nanometers and […] using a Hitachi F-2000 Fluorescence Spectrophotometer.
2 μL of a 10 mM inhibitor stock solution (in dimethyl sulfoxide) is added and the reduction in the rate of hydrolysis is determined. Additional 2 μL aliquots of the stock inhibitor solution is added until a 30% to 70% inhibition is observed. Ki is calculated on the assumption of simple competitive inhibition and that the substrate concentration is much less than Km.

Chain of stromelysin (P08254 100-477): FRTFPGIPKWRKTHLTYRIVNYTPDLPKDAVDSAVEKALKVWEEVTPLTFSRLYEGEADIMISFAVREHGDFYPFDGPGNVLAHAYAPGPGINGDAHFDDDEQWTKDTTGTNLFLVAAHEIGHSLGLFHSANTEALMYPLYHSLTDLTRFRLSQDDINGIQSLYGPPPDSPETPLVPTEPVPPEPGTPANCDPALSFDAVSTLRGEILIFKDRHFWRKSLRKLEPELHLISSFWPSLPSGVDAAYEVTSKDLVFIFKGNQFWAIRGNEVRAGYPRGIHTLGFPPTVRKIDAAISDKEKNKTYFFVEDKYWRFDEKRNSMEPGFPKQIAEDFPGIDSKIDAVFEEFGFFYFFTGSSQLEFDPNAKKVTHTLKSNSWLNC

Row | Compound | Ki (stromelysin) | Ki (72 kD gelatinase)
1 | O=C(N[C@@H](Cc1ccc(OCc2ccccc2)cc1)C(=O)N[C@H](C(=O)Nc1n[nH]c(=S)s1)c1ccccc1)OCc1ccccc1 | 39 nM and 64 nM | 0.145 nM
2 | CC(C)C[C@H](NC(=O)[C@H](Cc1ccccc1)NC(=O)OCc1ccccc1)C(=O)Nc1n[nH]c(=S)s1 [5-(N-benzyloxycarbonyl-phenylalanyl-leucylamino)-1,3,4-thiadiazole-2-thione] | 169 nM | 1.95 nM
3 | CC(C)[C@H](NC(=O)[C@H](Cc1ccccc1)NC(=O)OCc1ccccc1)C(=O)Nc1n[nH]c(=S)s1 [5-(N-benzyloxycarbonyl-phenylalanyl-valylamino)-1,3,4-thiadiazole-2-thione] | 279 nM | 4.6 nM

Source: patent US5677282A (Proscript, Inc., priority 1995, dated 1997)
